Patent publication US6610744B2, “Methods of treatment with compounds having RARα receptor specific or selective activity” (Allergan, Inc., priority 1995, dated 2003)
Values after ≈ are worked out from the molar mass of the structure shown.

What was measured:
[1] = system: limb bud mesenchymal cells; test: Chondrogenesis suppression bioassay (teratogenic potency); format: cell-based; settings: read-out: IC50 (50% inhibition of chondrogenesis); mouse limb bud spot cultures, 96 hours after plating; greater IC50 signifies lesser teratogenecity
Description: High-density “spot” cultures of limb bud mesenchymal cells are used to compare the ability of various concentrations of test drugs to suppress chondrogenic differentiation as a bioassay. Forelimb buds of mouse embryos on day 12 of gestation (54±2 somites) are dissociated in a trypsin-EDTA solution, and the resultant single-cell suspension is plated as 20-μl spots (200,000 cells/spot) on plastic culture dishes. Retinoid concentrations ranging from 0.3 ng/ml to 3 μg/ml (1 nM−10 μM) are added to the culture medium (Eagle's MEM±10% fetal bovine serum, GIBCO) 24 hours after initial plating. Control cultures receive only the vehicle (ethanol, concentration≦1% by vol); Retinoic acid is used as a positive control in another set of cultures.
The cultures are terminated 96 hours after plating, at which time the medium is removed and the cells are fixed for 1 hour in 10% formalin containing 0.5% cetylpyridinium chloride. The cultures are rinsed in acetic acid and stained for 1 hour in 0.5% Alcian blue solution at pH 1.0, differentiated in 3% acetic acid, and then dehydrated in ethanol and scored for chondrogenesis under the microscope. An absence or reduction in the number of cartilage nodules in stained cultures as compared with control cultures is taken as a measure of suppression of chondrogenesis. The number of cartilage nodules stained in the whole spot, mean number of nodules, and standard deviations are calculated for four replicate cultures per treatment. […] The IC50 values are expressed in nanogram per mililiter (ng/ml) units. An IC50 value of greater concentration in this assay signifies lesser teratogenecity.

RXRβ = biological target: T1, RXRβ (Homo sapiens, UniProt P28702); test: Ligand binding assay, RXRβ
T1 construct: made in house; host or cells: Baculovirus expression (insect cell extract)
T1 sequence (P28702 1-533): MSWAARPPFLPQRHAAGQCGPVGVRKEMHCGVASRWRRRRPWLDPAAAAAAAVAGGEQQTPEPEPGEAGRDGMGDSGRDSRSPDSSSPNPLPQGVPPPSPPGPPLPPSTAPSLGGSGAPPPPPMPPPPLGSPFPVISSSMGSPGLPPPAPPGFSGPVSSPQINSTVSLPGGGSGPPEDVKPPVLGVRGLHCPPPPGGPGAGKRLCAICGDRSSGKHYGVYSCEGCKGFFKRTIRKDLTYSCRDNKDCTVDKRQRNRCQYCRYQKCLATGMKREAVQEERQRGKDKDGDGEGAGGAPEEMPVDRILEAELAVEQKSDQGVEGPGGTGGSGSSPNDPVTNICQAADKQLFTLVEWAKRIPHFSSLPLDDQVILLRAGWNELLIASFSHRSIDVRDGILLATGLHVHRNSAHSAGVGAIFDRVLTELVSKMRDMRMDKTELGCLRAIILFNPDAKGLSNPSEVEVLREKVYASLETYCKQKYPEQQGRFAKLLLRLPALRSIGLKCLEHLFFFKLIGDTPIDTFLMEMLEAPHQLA
Description: (§1) All binding assays were performed in a similar fashion. All six receptor types were derived from the expressed receptor type (RARα, β, Γ and RXRα, β, Γ) expressed in Baculovirus. Stock solutions of all compounds were prepared as 10 mM ethanol solutions and serial dilutions carried out into 1:1 DMSO; ethanol. Assay buffers consisted of the following for all six receptor assays: 8% glycerol, 120 mM KCl 8 mM Tris, 5 mM CHAPS 4 mM DTT and 0.24 mM PMSF, pH-7.4@ room temperature.
(§2) All receptor binding assays were performed in the same manner. The final assay volume was 250 μl and contained from 10-40 μg of extract protein depending on receptor being assayed along with 5 nM of [^3H] all-trans retinoic acid or 10 nM [^3H] 9-cis retinoic acid and varying concentrations of competing ligand at concentrations that ranged from 0-10^−5 M. The assays were formatted for a 96 well minitube system. Incubations were carried out at 4° C. until equilibrium was achieved. Non-specific binding was defined as that binding remaining in the presence of 1000 nM of the appropriate unlabeled retinoic acid isomer. At the end of the incubation period, 50 μl of 6.25% hydroxyapitite was added in the appropriate wash buffer. The wash buffer consisted of 100 mM KCl, 10 mM Tris and either 5 mM CHAPS (RXRα, β, Γ) or 0.5% Triton X-100 (RARα, β, Γ). The mixture was vortexed and incubated for 10 minutes at 4° C., centrifuged and the supernatant removed. The hydroxyapitite was washed three more times with the appropriate wash buffer. The receptor-ligand complex was adsorbed by the hydroxyapitite. The amount of receptor-ligand complex was determined by liquid scintillation counting of hydroxyapitite pellet.
(§3) After correcting for non-specific binding, IC50 values were determined. […] The IC50 value was determined graphically from a loglogit plot of the data. The […] were determined by application of the Cheng-Prussof equation to the IC50 values, the labeled ligand concentration and the Kd of the labeled ligand.
(§4) The results of ligand binding assay are expressed in Kd numbers. (See Cheng et al. Biochemical Pharmacology Vol. 22 pp 3099-3108, expressly incorporated herein by reference.)

RXRΓ = biological target: T2, RXRΓ (Homo sapiens, UniProt P48443); test: Ligand binding assay, RXRΓ
T2 construct: made in house; host or cells: Baculovirus expression (insect cell extract)
T2 sequence (P48443 1-463): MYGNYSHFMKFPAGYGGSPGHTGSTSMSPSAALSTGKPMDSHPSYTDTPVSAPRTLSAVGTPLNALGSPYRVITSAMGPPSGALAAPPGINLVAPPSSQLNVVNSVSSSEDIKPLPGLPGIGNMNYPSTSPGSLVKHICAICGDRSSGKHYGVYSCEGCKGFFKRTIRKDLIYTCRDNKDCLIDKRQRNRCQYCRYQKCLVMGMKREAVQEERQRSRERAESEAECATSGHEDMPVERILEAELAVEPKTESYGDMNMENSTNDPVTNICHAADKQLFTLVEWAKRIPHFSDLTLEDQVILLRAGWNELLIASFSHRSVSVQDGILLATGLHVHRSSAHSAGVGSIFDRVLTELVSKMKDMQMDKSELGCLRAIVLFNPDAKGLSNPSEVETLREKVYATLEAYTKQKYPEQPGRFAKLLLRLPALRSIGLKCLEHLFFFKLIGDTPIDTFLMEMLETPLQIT
Description: as §1, §2, §3, §4

[2] = system: AML-193 cells (acute monocytic leukemia); test: AML 193 cell culture assay (3H-thymidine incorporation); format: cell-based, human; settings: FIG. 3; low concentrations
Description: (§5) All trans-retinoic acid (t-RA) (Sigma Chemicals Co., St. Louis, Mo.) was stored at −70° C. Prior to each experiment the compound was dissolved in 100% ethanol at 1 mM and diluted in culture medium immediately before use. All experiments were performed in subdued light. Controls were assayed using the same concentration of ethanol as present in the experimental plates and this concentration of diluent had no effect in either assay.
AML-193 was established from the blast cells classified as M5 Acute Monocyte Leukemia. The growth factor, […] (GM-CSF) was required to establish this cell line and growth factors are necessary for its continuous proliferation in chemically defined medium. AML-193 cells were grown and maintained in Iscove's modified Dulbecco's medium supplemented with 10% fetal bovine serum, glutamine and antibiotics with 5 μg/ml insulin (Sigma Chemical Co.) and 2 ng/ml rh GM-CSF (R and D Systems). The cells were diluted to a concentration of 3×10^5/ml twice a week.
(§6) AML-193 cells were plated in a 96 well round bottom microtiter plate (Costar) at a density of 1,000 cells/well. To appropriate wells, retinoid test compounds were added at the final concentrations indicated for a final volume of 150 μl/well. The plates were incubated for 96 hours at 37° C. in a humidified atmosphere of 5% CO2 in air. Subsequently, 1 μCi of [5′-^3H]-thymidine (Amersham, U.K., 43 Ci/mmol specific activity) in 25 μl culture medium was added to each well and the cells were incubated for an additional 6 hours.
(§7) The cell lines were then processed as follows: the cellular DNA was precipitated with 10% trichloroacetic acid onto glass fiber filter mats using a SKATRON multi-well cell harvester (Skatron Instruments, Sterling Va.). Radioactivity incorporated into DNA, as a direct measurement of cell growth, was measured by liquid scintillation counting. The numbers represent the mean disintegrations per minute of incorporated thymidine from triplicate wells±SEM.

[3] = system: RPMI 8226 cells (malignant myeloma); test: RPMI 8226 cell culture assay (3H-thymidine incorporation); format: cell-based, human; settings: FIG. 1; for growth of RPMI 8226 malignant cells: 96 hours; for growth of RPMI 8226 cells at low concentration: low concentration range 10^−12 to approximately 10^−9
Description: as §5
The cell lines, RPMI 8226, ME-180 and AML-193 were obtained from the American Type Culture Collection (ATCC, Rockville, Md.). RPMI 8226 is a human hematopoietic cell line obtained from the peripheral blood of a patient with multiple myeloma. The cells resemble the lymphoblastoid cells of other human lymphocyte cell lines and secrete […] light chains of immunoglobulin. RPMI-8226 cells are grown in RPMI medium (Gibco) supplemented with 10% fetal bovine serum, glutamine and antibiotics. The cells were maintained as suspension cultures grown at 37° C. in a humidified atmosphere of 5% CO2 in air. The cells were diluted to a concentration of 1×10^5/ml twice a week.
as §6, with “The method used for determination of the incorporation of radiolabeled thymidine was adapted from the procedure described by Shrivastav et al. RPMI-8226” for “AML-193”, “U.K.” for “U.K.,”, “hours. The cultures were further processed as described below.” for “hours.”
as §7

[4] = system: hairless mice [Crl:SKH1-hrBR]; test: Eight day topical skin irritation assay in hairless mice; settings: for Abrasion Score / Body Weight % gain or (loss) / Composite Score / Flaking Score / Mortality (out of 4): 5 days
Description: More particularly, skin irritation was measured on a semi-quantitative scale by the daily subjective evaluation of skin flaking and abrasions. A single number, the topical irritation score, summarizes the skin irritation induced in an animal during the course of an experiment. The topical irritation score is calculated as follows. The topical irritation score is the algebraic sum of a composite flaking score and a composite abrasion score. The composite scores range from 0-9 and 0-8 for flaking and abrasions, respectively, and take into account the maximum severity, the time of onset, and the average severity of the flaking and abrasions observed.
The severity of flaking is scored on a 5-point scale and the severity of abrasions is scored on a 4-point scale, with higher scores reflecting greater severity. The maximum severity component of the composite scores would be the highest daily severity score assigned to a given animal during the course of observation.
For the time of onset component of the composite score, a score ranging from 0 to 4 is assigned as follows:
The average severity component of the composite score is the sum of the daily flaking or abrasion scores divided by the number of observation days.
To calculate the composite flaking and abrasion scores, the average severity and time of onset scores are summed and divided by 2. The result is added to the maximal severity score. The composite flaking and abrasion scores are then summed to give the overall topical irritation score. Each animal receives a topical irritation score, and the values are expressed as the mean±SD of the individual scores of a group of animals. Values are rounded to the nearest integer.
Thus, female hairless mice [Crl:SKH1-hrBR] […] Treatments are applied to the dorsal skin in a total volume of 4 ml/kg (−0.1 ml).

[5] = Weight loss in rats treated for 3 days; format: in vivo, rat; settings: rats, similar tests
Description: Weight loss or gain that experimental animals experience upon administration of retinoid compounds is another test of the drug's toxicity, with significant weight loss at relatively low doses indicating a significant toxic side effect of the retinoid. In one experiment, groups of 5 rats were treated with varying doses (administered in corn oil) of a test retinoid for 3 days. The rats were euthanized 24 hours after the last dose.

SMILES: CC1(C)CC(C)(C)c2cc(C(=O)Nc3ccc(C(=O)O)c(F)c3)cc(Br)c2O1 [Compound 10, 2-Fluoro-4-[(2′,2′,4′,4′-tetramethyl-8′-bromochroman-6′-yl)carbamoyl]benzoic Acid]
- IC50 [1]: 250 ng/mL (≈ 555 nM)

SMILES: CC(C)(C)c1cc(C(=O)Nc2ccc(C(=O)O)c(F)c2)c(O)c(C(C)(C)C)c1 [Compound 48]
- Kd (RXRβ): > 1 µM
- Kd (RXRΓ): > 1 µM

SMILES: CC1(C)CC(C)(C)c2cc(C(=O)Nc3ccc(C(=O)O)c(F)c3)cc(C(F)(F)F)c2O1 [Compound 12]
- AML-193 cell proliferation at low concentrations [2]: reduce cell proliferation at low concentrations
- growth of RPMI 8226 malignant cells [3]: inhibited the growth
- growth of RPMI 8226 cells at low concentration [3]: do not stimulate but rather already in this low concentrations inhibit the growth

SMILES: CC(C)(C)c1cc(C(=O)Nc2ccc(C(=O)O)cc2)cc(C(C)(C)C)n1 [Compound 44]
- Kd (RXRβ): > 1 µM
- Kd (RXRΓ): > 1 µM

SMILES: CC1(C)CCC(C)(C)c2c(Br)cc(C(=O)Nc3ccc(C(=O)O)c(F)c3)cc21 [Compound 4, 2-Fluoro-4-[(4′-bromo-5′,6′,7′,8′-tetrahydro-5′,5′,8′,8′-tetramethylnaphthalen-2′-yl)carbamoyl]benzoic Acid]
- AML-193 cell proliferation at low concentrations [2]: reduce cell proliferation at low concentrations
- growth of RPMI 8226 malignant cells [3]: inhibited the growth
- growth of RPMI 8226 cells at low concentration [3]: do not stimulate but rather already in this low concentrations inhibit the growth

SMILES: C/C(=C\c1ccc(C(=O)O)cc1)c1ccc2c(c1)C(C)(C)CCC2(C)C [TTNPB]
- Abrasion Score ([4]; dose 0.9 nanomol/25 g topical): 3
- Body Weight % gain or (loss) ([4]; dose 0.9 nanomol/25 g topical): 5 ± 2%
- Composite Score ([4]; dose 0.9 nanomol/25 g topical): 8 ± 2
- Flaking Score ([4]; dose 0.9 nanomol/25 g topical): 5
- Mortality (out of 4) ([4]; dose 0.9 nanomol/25 g topical): 0 out of 4
- Abrasion Score ([4]; dose 2.7 nanomol/25 g topical): 3
- Body Weight % gain or (loss) ([4]; dose 2.7 nanomol/25 g topical): (4 ± 3) %
- Composite Score ([4]; dose 2.7 nanomol/25 g topical): 9 ± 2
- Flaking Score ([4]; dose 2.7 nanomol/25 g topical): 6
- Mortality (out of 4) ([4]; dose 2.7 nanomol/25 g topical): 0 out of 4
- Abrasion Score ([4]; dose 9 nanomol/25 g topical): 5
- Body Weight % gain or (loss) ([4]; dose 9 nanomol/25 g topical): (11 ± 3) %
- Composite Score ([4]; dose 9 nanomol/25 g topical): 11 ± 2
- Flaking Score ([4]; dose 9 nanomol/25 g topical): 7
- Mortality (out of 4) ([4]; dose 9 nanomol/25 g topical): 0 out of 4
- skin irritation (summary in words) ([4]; topical, hairless mice, RARα selective compound up to 1000 nmol/25 g): much more serious skin irritation
- IC50 [1]: 0.01 ng/mL (≈ 0.0287 nM)
- weight loss in similar tests [5]: very significant weight loss
